Data: patent US20230023770A1, “Preparation of Drug for Treating Alzheimer's Disease (AD)” (Plantarx Limited, priority 2019, published 2023)
“Also recorded” adds a separate entry of the source.

What was measured:
interleukin-6 (IL-6) = test: ELISA of IL-6 in mouse hippocampus; format: in vivo, ICR mice; settings: acyclovir 500 mg/kg, DXMT 2 mg/kg, donepezil 2.5 mg/kg
Method: (§1) The acyclovir, DXMT and donepezil were dissolved in water.
(§2) Mice recover for 3 d without any experiments.
(§3) One day after the Morris water maze test, mice are deeply anesthetized and transcardially perfused with an ice-cold saline. The brain is quickly dissected. Hippocampal proteins are extracted and stored at −80° C. prior to use in a Western blotting assay (4 mice per group) and an enzyme-linked immunosorbent assay (ELISA, 3 mice per group). Intact brain tissues (3 mice per group) are stored in a formalin solution at […] prior to staining using immunohistochemistry (IHC).
Determination was conducted on concentrations of interleukin-6 (IL-6) and tumor necrosis factor-α (TNF-α) in mouse hippocampus using freshly prepared brain tissues. Brain samples are homogenized in a 0.1M phosphate buffered saline. A resulting brain extract is centrifuged to 2,000 g at 4° C. for 15 min. Concentrations of IL-6 and TNF-α are determined with an ELISA kit (Excell Bio, Shanghai, China) according to the manufacturer's protocol. An absorbance is read.

HSV-1-infected cells = settings: cited from earlier work
CD45 = test: IHC staining of CD45 (microglia activation) in hippocampus; format: in vivo, ICR mice; settings: acyclovir 500 mg/kg, DXMT 2 mg/kg
Method: as §1, §2, §3
(§4) IHC staining is conducted according to previously reported protocols^11. Briefly, after the Morris water maze test, the brains are dissected and incubated with 4% paraformaldehyde for 1 d. Brain specimens are dehydrated, paraffin-embedded, and sliced into 4-micron slices. Hippocampal sections are dewaxed and rehydrated. Treatment with 3% H2O2 is conducted for 10 min to inhibit a cellular peroxidase activity. Sections are incubated overnight at 4° C. with primary antibodies to a CD45 antigen and a glial fibrillary acidic protein (GFAP). […] The sections are labeled with DAB and analyzed colorimetrically. A mean OD of the area is analyzed using Image Pro 6.0 (Media Cybernetics Inc., MD, USA). […] Positive area and OD are determined by measurements on randomly selected microscope fields on each slide. […]

Aβ oligomer-treated mice [1] = test: Open field experiment (motor activity); settings: day 17, 5 min, acyclovir 500 mg/kg, DXMT 2 mg/kg
Method: Zhejiang Academy of Medical Sciences has provided ICR mice weighing about 25 g. The mice are subjected to a 12-h illumination/darkness cycle at 22±2° C. (humidity: 50±10%) and are provided with water and standard food. The acyclovir, DXMT and donepezil were dissolved in water. The mice are randomly divided into 6 groups with 10 mice in each group, including: a control group, an Aβ oligomer group, an Aβ+500 mg/kg acyclovir group, an Aβ+2 mg/kg DXMT group, an Aβ+500 mg/kg acyclovir, 2 mg/kg DXMT group, and an Aβ+2.5 mg/kg donepezil group. The mice are anesthetized by intraperitoneal injection of sodium pentobarbital (50 mg/kg) and placed in a stereotaxic apparatus (RWD Life Science Co., Ltd., Shenzhen, China).
On day 1, the Aβ oligomer was injected into a bilateral ventricle region. A micro-dose is injected (1 μl/side) over 5 min. To reduce backflow, the cannula is left in place for 5 min. […] Mice recover for 3 d without any experiments. […]
To analyze a motor activity and exploratory behavior, the mice are housed in an open field (50 cm×50 cm×39 cm) with white plywood walls and brown floors. […] The number of crossed lines of four paws and the number of feedings are recorded using a hand-held counter and stopwatch, which are used to mark the motor activity and exploratory behavior. […]

IL-17 = test: Western blotting of IL-17 in mouse hippocampus; format: in vivo, ICR mice; settings: acyclovir 500 mg/kg, DXMT 2 mg/kg, donepezil 2.5 mg/kg
Method: as §1, §2, §3
(§5) The Western blotting assay is conducted as previously described^11. Briefly, the brain tissues from hippocampus are extracted in a lysis buffer for 1 min and centrifuged at 16,000 g for 10 min. Protein levels in a supernatant are estimated by a Bradford analysis, the proteins are separated on an SDS-polyacrylamide gel, and electrotransferred to a polyvinylidene fluoride membrane. After 2 h of incubation with 5% skim milk in TBST, incubation is conducted for 12 h with corresponding antibodies Tau, IL-17 (Santa Cruz Biotechnology, Shanghai, China), pSer396-Tau, PSD-95, and β-actin (Cell Signaling Technology, Inc., Beverly, Mass., USA). […] The data is expressed as a ratio of an optical density (OD) compared to the control and a statistical analysis.

pSer396-Tau = test: Western blotting of pTau in mouse hippocampus; format: in vivo, ICR mice; settings: acyclovir 500 mg/kg, DXMT 2 mg/kg
Method: as §1, §2, §3, §5

[2] = tested on: glial fibrillary acidic protein (GFAP); test: IHC staining of GFAP (astrocyte activation) in hippocampus; format: in vivo, ICR mice; settings: acyclovir 500 mg/kg, DXMT 2 mg/kg, donepezil 2.5 mg/kg
Method: as §1, §2, §3, §4

PSD-95 = test: Western blotting of PSD-95 in mouse hippocampus; format: in vivo, ICR mice; settings: acyclovir 500 mg/kg, DXMT 2 mg/kg, donepezil 2.5 mg/kg
Method: as §1, §2, §3, §5

Aβ oligomer-treated mice [3] = test: Morris water maze test (spatial cognition); format: in vivo, ICR mice; settings: acyclovir 500 mg/kg, DXMT 2 mg/kg, donepezil 2.5 mg/kg; for time in the target area compared with the Aβ group: probe trial, platform removed, 90 sec
Method: as §1, §2
The spatial memory is assessed with the Morris water maze test^10. The Morris water maze is a circular pool (110 cm in diameter) filled with water at a temperature of 23±2° C., and has a platform. Except on a last day, the platform is always placed in a center of a northwest quadrant. Swimming tracks are recorded by a video recorder connected to a computer. Each mouse is trained on positioning the platform over a four-day trial, and learning is assessed daily for four consecutive days. The time mice take to enter a hidden platform is measured. On the last day, the platform is removed and the mice are trained to swim for 90 sec for a probe trial. The swimming times are recorded in the four quadrants of the pool. A tendency to appear in the quadrant occupied before the platform indicates a spatial memory ability.

[4] = Body weight of Aβ oligomer-treated mice during treatment; format: in vivo, ICR mice; settings: last day of experiment, gavage 13 d twice a day, acyclovir 500 mg/kg, DXMT 2 mg/kg, donepezil 2.5 mg/kg
Method: as §1, §2
Briefly, on day 1, the Aβ oligomers are injected into both sides of the mouse hippocampus. The mice are let recover for 3 d. On days 4 to 16, mice are treated differently for 13 d. On day 17, a motor function of the mice is examined by the open field test. On days 18-24, the spatial cognition is tested by the Morris water maze test. On day 25, the mice are sacrificed for biochemical studies.
Digestive disturbance is one of the common adverse effects of acyclovir. Long-term treatment with acyclovir may cause indigestion and malnutrition, leading to weight loss. Therefore, the body weight of the mice is measured every 2 d to 3 d during the experiment.

Row | SMILES | Aβ-induced increase in IL-6 expression compared with the Aβ group (interleukin-6 (IL-6)) | inhibition of aberrant tau phosphorylation (HSV-1-infected cells) [%] | reduction of HSV-1-induced Aβ accumulation (HSV-1-infected cells) [%] | Aβ-induced increase in CD45 mean OD compared with the Aβ group (CD45) | motor function (number of standing, number of crossing lines) (Aβ oligomer-treated mice [1]) | Aβ-induced increase in IL-17 expression compared with the Aβ group (IL-17) | Aβ-induced increase in pTau expression compared with the Aβ group (pSer396-Tau) | Aβ-induced increase in the mean OD of GFAP compared with the Aβ group [2] | expression of PSD-95 compared with the Aβ group (PSD-95) | time in the target area compared with the Aβ group (Aβ oligomer-treated mice [3]) | body weight compared with the control group [4] | time to find the hidden platform (latency) compared with the Aβ group (Aβ oligomer-treated mice [3]; last day of training, gavage 13 d)
1 | Nc1nc2c(ncn2COCCO)c(=O)[nH]1 [acyclovir] | does not significantly reduce IL-6 production | ~100 | 70 | can inhibit the activation of microglia | do not significantly alter the motor function | cannot reduce the expression of IL-17 | significantly attenuate | significantly reduce; also recorded: neither acyclovir nor donepezil treatment can change | does not alter the expression of PSD-95 | do not show a better performance | – | –
2 | COc1cc2c(cc1OC)C(=O)C(CC1CCN(Cc3ccccc3)CC1)C2 (centres unmarked) [donepezil] | does not alter the expression of IL-6 | – | – | – | – | does not alter the expression of IL-17 | – | neither acyclovir nor donepezil treatment can change | does not alter the expression of PSD-95 | significantly longer | does not change the body weight | significantly shorter
